Data as given in patent US20100143995A1, “Process for Fermentive Preparation of Alcohols and Recovery of Product” (E. I. DU PONT DE NEMOURS AND COMPANY, priority 2008, published 2010).

Experiments:
[1] = Extraction of ethanol from an aqueous solution by ionic liquid (HPLC); assay type: physicochemical; settings: ethanol in aqueous solution after mixing 3 mL of about 31 g/L ethanol with 150 microliters (5 vol %) ionic liquid, overnight equilibration, control 655
Method: (§1) Ethanol and isobutanol concentration in the solution was measured using HPLC as described above following thorough mixing and overnight equilibration of the contents of the vial.

[2] = Extraction of isobutanol from an aqueous solution by ionic liquid (HPLC); assay type: physicochemical; settings: isobutanol in aqueous solution after mixing 3 mL of about 31 g/L isobutanol with 150 microliters (5 vol %) ionic liquid, overnight equilibration, control 436
Method: as §1

[3] = system: Saccharomyces cerevisiae (W1362 20A); assay: Glucose Uptake Index of Saccharomyces cerevisiae culture in YPD medium with ionic liquid added; settings: 5% (v/v) ionic liquid added after 4 h, further 16 h at 30° C., GUI of control without ionic liquid 79.0 (Ex. 1-5) or 100 (Ex. 6-8)

| Compound | GUI of Sample (Glucose Utilization Index in the presence of 5% (v/v) of the ionic liquid phase) [3] | mM Ethanol [1] [mM] | mM isobutanol [2] [mM] | further results |
| --- | --- | --- | --- | --- |
| CCOCC[N+](C)(C)CCN1C(=O)CCC1C (centres unmarked) [Example 2, 1-(N,N,N-dimethyl(ethylethoxy)aminoethyl)-5-methyl-pyrrolidine-2-one hexafluoropropanesulfonate] | 34.0 | – | – | mM Ethanol ([1]; listed as [MeDMEEAP] [HFPS]): 656 mM; mM isobutanol ([2]; listed as [MeDMEEAP] [HFPS]): 422 mM |
| 1-Butyl-3-methylimidazolium levulinate [Example 5] | – | 596 | – | – |
| COCC[N+](C)(C)CCN1C(=O)CCC1C.O=S(=O)([N-]S(=O)(=O)C(F)(F)F)C(F)(F)F (centres unmarked) [Example 7, 1-(N,N,N-dimethyl(methylethoxy)aminoethyl)-5-methylpyrrolidone-2-one bis(trifluoromethane)sulfonamide] | 100 | 643 | 389 | – |
| COCC[N+](C)(C)CCN1C(=O)CCC1C (centres unmarked) [Example 4, 1-(N,N,N-dimethyl(methylethoxy)aminoethyl)-5-methylpyrrolidin-2-one hexafluoropropanesulfonate] | 21.9 | 645 | 423 | – |
| CCOCC[N+](C)(C)CCN1C(=O)CCC1C (centres unmarked) [Example 3, 1-(N,N,N-dimethyl(ethylethoxy)aminoethyl)-5-methyl-pyrrolidine-2-one bis(trifluoromethane)sulfonamide] | 80.4 | – | – | mM Ethanol ([1]; listed as [MeDMEEAP] [Tf2N]): 637 mM; mM isobutanol ([2]; listed as [MeDMEEAP] [Tf2N]): 398 mM |
| CCC[N+](C)(C)CCN1C(=O)CCC1C.O=S(=O)([N-]S(=O)(=O)C(F)(F)F)C(F)(F)F (centres unmarked) [Example 6, 1-(N,N,N-dimethylpropylaminoethyl)-5-methylpyrrolidone-2-one bis(trifluoromethane)sulfonamide] | 100 | – | 387 | – |
| CC1CCC(=O)N1CC[N+](C)(C)CCO.O=S(=O)([N-]S(=O)(=O)C(F)(F)F)C(F)(F)F (centres unmarked) [Example 8, 1-(N,N,N-dimethyl(hydroxyethyl)aminoethyl)-5-methylpyrrolidone-2-one bis(trifluoromethane)sulfonamide] | 89.3 | – | 417 | – |
